Key:
[1] = Cytotoxicity in PHH natural infection assay (Cell Counting Kit-8); assay type: cell-based; conditions: HBV-infected primary human hepatocytes, CCK8
Description: (§1) Detailed procedures regarding primary human hepatocyte (PHH) HBV natural infection assay are described as below. One tube of frozen PHH (10 million cells) is thawed in 37° C. water bath and then transferred to 20 mL of PHH thawing medium (Sigma, InVitroGRO HT Medium, Cat. S03319) with gently mixing. The cells were then centrifuged at […] for 5 min, the supernatant was discarded and the tube was refilled with 25 mL of PHH plating medium (Sigma, InVitroGRO CP Medium, Cat. S03317). The tube was shaken very gently to re-suspend all cells, and then 50 μl of cells were transferred to each well 384-well collagen I coated plate with appropriate liquid handling equipment, e.g. Integra VIAFLO384 or Agilent Bravo. The cells were then cultured for 24 hours in a cell incubator. For HBV infection, after PHH attachment on the culture plate, the plating medium was removed and replenished with PHH culture medium containing HBV virus. The PHH culture medium was prepared with Dulbecco's Modified Eagle Medium (DMEM)/F12 (1:1 in volume ratio) containing 10% fetal bovine serum (Gibco, Cat. 10099141), 5 ng/mL human epidermal growth factor (Gibco, Cat.PHG031IL), 20 ng/mL dexamethasone (Sigma, Cat.D4902-100 mg), 250 ng/mL human recombinant insulin (Gibco, Cat.41400045) and 100 U/mL penicillin. HBV virus at 200 genome equivalent (GE) per cell with 4% PEG8000 (Sigma, Cat.P1458) containing culture medium were added to the PHH culture medium for infection. The cells were then cultured for 24 hours in cell incubator. Then the cell culture supernatant was removed. The HBV-infected PHH were cultured with sandwich culture method with PHH culture medium containing 1% DMSO and 0.25 mg/mL matrix gel for 72 hours. The supernatant was then refreshed with PHH culture medium containing different concentrations of testing compounds for two times with 72-hour interval. At the end of treatment, the supernatant was collected for viral markers measurements, including HBsAg, HBeAg, HBV DNA and cytotoxicity. HBsAg and HBeAg were detected using alphalisa method using their specific antibodies. For HBV DNA detection, HBV DNA Quantitative Fluorescence Diagnostic Kit (Sansure Biotech Inc.) was used following the manufacture's protocol. Cytotoxicity was determined using Cell Counting Kit-8 (CCK8, Dojindo Molecular Technologies, Inc.).

HBsAg = assay: PHH natural infection assay, HBsAg (alphalisa); assay type: cell-based, HBV; conditions: Hepatitis B virus, Hepatocyte, 72 h, read-out: HBsAg IC50
Description: as §1
(§2) The compounds of the present invention were tested for their capacity to inhibit HBsAg and HBeAg as described herein.

HBeAg = assay: PHH natural infection assay, HBeAg (alphalisa); assay type: cell-based, HBV; conditions: Hepatitis B virus, Hepatocyte, 72 h, read-out: HBeAg IC50
Description: as §1, §2

Compound | CC50 at 144 h [1] [µM] | IC50 (HBsAg) [µM] | IC50 (HBeAg) [µM]
CN(C)C(=S)Nc1ccc2nn(-c3ccc(Cl)cc3)nc2c1 [Example 61, 3-[2-(4-Chlorophenyl)benzotriazol-5-yl]-1,1-dimethyl-thiourea] | > 100 | 0.79 | 1.22
COc1cccc(-n2nc3ccc(N)cc3n2)c1 [Example 6, 2-(3-Methoxyphenyl)benzotriazol-5-amine] | > 100 | 2.44 | 4.1
COCCNc1ccc2nn(-c3ccc(Cl)cc3)nc2c1 [Example 15, 2-(4-Chlorophenyl)-N-(2-methoxyethyl)benzotriazol-5-amine] | > 100 | 3.71 | 2.36
Clc1ccc(-n2nc3ccc(NC4CCC4)cc3n2)cc1 [Example 29, 2-(4-Chlorophenyl)-N-cyclobutyl-benzotriazol-5-amine] | > 100 | 5.55 | 9.23
COCCNc1ccc2nn(-c3cccc(OC)c3)nc2c1 [Example 17, N-(2-methoxyethyl)-2-(3-methoxyphenyl)benzotriazol-5-amine] | > 100 | 8.06 | 15.4
CC(=O)Nc1ccc2nn(-c3ccc(Cl)cc3)nc2c1 [Example 38, N-[2-(4-chlorophenyl)benzotriazol-5-yl]acetamide] | > 100 | 3.65 | 5.54
Nc1ccc2nn(-c3ccc(F)cc3)nc2c1 [Example 4, 2-(4-Fluorophenyl)benzotriazol-5-amine] | > 100 | 5.04 | 5.29
CNC(=O)CCNc1ccc2nn(-c3ccc(Cl)cc3)nc2c1 [Example 37, 3-[[2-(4-Chlorophenyl)benzotriazol-5-yl]amino]-N-methyl-propanamide] | > 100 | 4.64 | 8.68
CC(C)Nc1ccc2nn(-c3ccc(Cl)cc3)nc2c1 [Example 30, 2-(4-Chlorophenyl)-N-isopropyl-benzotriazol-5-amine] | > 100 | 3.75 | 6.61
O=C(Nc1ccc2nn(-c3ccc(Cl)cc3)nc2c1)C1CCCCO1 (stereo not drawn) [Example 46, N-[2-(4-chlorophenyl)benzotriazol-5-yl]tetrahydropyran-2-carboxamide] | > 100 | 2.68 | 1.14
Cc1cc(N)cc2nn(-c3ccc(Cl)cc3)nc12 [Example 11, 2-(4-Chlorophenyl)-7-methyl-benzotriazol-5-amine] | > 100 | 2.66 | 3.89
CNc1ccc2nn(-c3ccc(Cl)cc3)nc2c1 [Example 12, 2-(4-Chlorophenyl)-N-methyl-benzotriazol-5-amine] | > 100 | 1.83 | 2.44
CCS(=O)(=O)c1ccc(-n2nc3ccc(N)cc3n2)cc1 [Example 8, 2-(4-Ethylsulfonylphenyl)benzotriazol-5-amine] | > 100 | 6.32 | 6.26
Fc1ccc(-n2nc3ccc(NCC4CCOC4)cc3n2)cc1 (stereo not drawn) [Example 20, 2-(4-Fluorophenyl)-N-(tetrahydrofuran-3-ylmethyl)benzotriazol-5-amine] | > 100 | 5.66 | 7.3
c1ccc(-n2nc3ccc(NC4CCCC4)cc3n2)cc1 [Example 16, N-cyclopentyl-2-phenyl-benzotriazol-5-amine] | > 100 | 9.25 | 15.8
CC(=O)NC(=S)Nc1ccc2nn(-c3ccc(Cl)cc3)nc2c1 [Example 55, N-[[2-(4-chlorophenyl)benzotriazol-5-yl]carbamothioyl]acetamide] | > 100 | 2.97 | 5.1
O=C(Nc1ccc2nn(-c3ccc(Cl)cc3)nc2c1)C1COCCO1 (stereo not drawn) [Example 47, N-[2-(4-chlorophenyl)benzotriazol-5-yl]-1,4-dioxane-2-carboxamide] | > 100 | 3.73 | 1.84

Compound | CC50 at 144 h [1] [µM] | IC50 (HBsAg) [µM] | IC50 (HBeAg) [µM]
O=C(Nc1ccc2nn(-c3ccc(F)cc3)nc2c1)C1CCCCO1 (stereo not drawn) [Example 42, N-[2-(4-fluorophenyl)benzotriazol-5-yl]tetrahydropyran-2-carboxamide] | > 100 | 6.38 | 6.12
COCCNc1ccc2nn(-c3ccc(S(C)(=O)=O)cc3)nc2c1 [Example 19, N-(2-methoxyethyl)-2-(4-methylsulfonylphenyl)benzotriazol-5-amine] | > 100 | 8.94 | 6.97
Cc1cc2nn(-c3ccc(Cl)cc3)nc2cc1NC(=S)NC(=O)c1ccccc1 [Example 59, N-[[2-(4-chlorophenyl)-6-methyl-benzotriazol-5-yl]carbamothioyl]benzamide] | > 100 | 1.11 | 3.04
Clc1ccc(-n2nc3ccc(NC4CCCC4)cc3n2)cc1 [Example 31, 2-(4-Chlorophenyl)-N-cyclopentyl-benzotriazol-5-amine] | > 100 | 8.86 | 11.9
CCN(C)c1ccc2nn(-c3ccc(Cl)cc3)nc2c1 [Example 36, 2-(4-Chlorophenyl)-N-ethyl-N-methyl-benzotriazol-5-amine] | > 100 | 4.03 | 4.45
Clc1ccc(-n2nc3ccc(NCC4CC4)cc3n2)cc1 [Example 25, 2-(4-Chlorophenyl)-N-(cyclopropylmethyl)benzotriazol-5-amine] | > 100 | 5.95 | 7.52
Cc1cc2nn(-c3ccc(Cl)cc3)nc2cc1NC(N)=S [Example 60, [2-(4-Chlorophenyl)-6-methyl-benzotriazol-5-yl]thiourea] | > 100 | 2.28 | 2.31
CCN(CC)c1ccc2nn(-c3ccc(Cl)cc3)nc2c1 [Example 34, 2-(4-Chlorophenyl)-N,N-diethyl-benzotriazol-5-amine] | > 100 | 1.8 | 2.5
CS(=O)(=O)c1ccc(-n2nc3ccc(N)cc3n2)cc1 [Example 7, 2-(4-Methylsulfonylphenyl)benzotriazol-5-amine] | > 100 | 5.67 | 3.21
FC(F)(F)CNc1ccc2nn(-c3ccc(Cl)cc3)nc2c1 [Example 28, 2-(4-Chlorophenyl)-N-(2,2,2-trifluoroethyl)benzotriazol-5-amine] | > 100 | 2.14 | 2.46
COCCCNc1ccc2nn(-c3ccc(F)cc3)nc2c1 [Example 22, 2-(4-Fluorophenyl)-N-(3-methoxypropyl)benzotriazol-5-amine] | > 100 | 3.27 | 6.4
O=C(Nc1ccc2nn(-c3ccc(Cl)cc3)nc2c1)C1CCCC1 [Example 49, N-[2-(4-chlorophenyl)benzotriazol-5-yl]cyclopentanecarboxamide] | > 100 | 2.84 | 1.29
O=C(NC(=S)Nc1ccc2nn(-c3ccc(Cl)cc3)nc2c1)c1ccccc1 [Example 58, N-[[2-(4-chlorophenyl)benzotriazol-5-yl]carbamothioyl]benzamide] | > 100 | 1.17 | 1.27
Cc1nc(Nc2ccc3nn(-c4ccc(Cl)cc4)nc3c2)sc1C [Example 65, N-[2-(4-chlorophenyl)benzotriazol-5-yl]-4,5-dimethyl-thiazol-2-amine] | > 100 | 2.67 | 2.91
CCNc1ccc2nn(-c3ccc(Cl)cc3)nc2c1 [Example 13, 2-(4-Chlorophenyl)-N-ethyl-benzotriazol-5-amine] | > 100 | 1.3 | 1.6
O=C(Nc1ccc2nn(-c3ccc(F)cc3)nc2c1)C1CCOCC1 [Example 41, N-[2-(4-fluorophenyl)benzotriazol-5-yl]tetrahydropyran-4-carboxamide] | > 100 | 2.19 | 2.31
O=C(Nc1ccc2nn(-c3ccc(Cl)cc3)nc2c1)C1CCCCC1 [Example 39, N-[2-(4-chlorophenyl)benzotriazol-5-yl]cyclohexanecarboxamide] | > 100 | 3.91 | 2.89

From US20230286927A1, “2-PHENYLBENZOTRIAZOL-5-AMINE DERIVATIVES FOR THE TREATMENT AND PROPHYLAXIS OF HEPATITIS B VIRUS (HBV) INFECTION” (priority 2020, published 2023)
